US11142543B2 (priority 2016, dated 2021)

Assays:
ICR mice [1] = assay: Tail suspension test (TST), Example 39; type: in vivo; details: gavage 10 mg/Kg for 6 days, t-test
Description: Tail Suspension Test (TST) to Investigate the Antidepressant Activity of Some Compounds and Some Natural Products of the Present Invention
(§1) Male ICR mice (body weight, 20±2 g) used in the experiment were purchased from the Experimental Animal Center of Shanghai Institute of Materia Medica, Chinese Academy of Sciences. They were free access to water and kept at room temperature (23 2) ° C. in natural light. All mice were randomly divided into a blank control group and a test group, with 10 mice in each group and 5 mice/cage. The experiment was started after 3 days of adaptation in the breeding environment. The mice were fasted for 12 hours before the experiment but free access to water. The specific administration method was gavage administration, and the administration dose was 10 mg/Kg, and the blank control group was given an equal volume of 0.5% CMC-Na.
Specific procedures: The mice were continuously administered for 6 days, and tested 1 hour after the last administration. Firstly, the spontaneous activity of the mice was measured by the open field method, that is, the mice were individually placed in a cylindrical glass jar for 4 minutes, and the number of lifting arms within the last 2 minutes was recorded. Then the tail of the mice was stick onto the horizontal bar by the tape at 2 cm from the tip of the tail, and the animal eyesight was separated by the surrounding plates. The horizontal bar was about 25 cm from the ground, so that the mouse was about 10 cm from the ground, and the timing was 6 min. The cumulative immobility time within the last 4 minutes was recorded. Each group of mice was operated in parallel.
(§2) Experimental data processing: The experimental results were expressed as mean standard error (x SD). Statistical analysis was performed using t-test to determine whether it was significant. […] Then, the t-test was performed on the experimental index of tail suspension test to determine whether it had antidepressant effect.

ICR mice [2] = assay: Forced swimming test (FST), Example 38; type: in vivo; details: gavage 10 mg/Kg for 6 days, t-test
Description: Forced swimming test (FST) to investigate the antidepressant activity of some compounds and some natural products of the present invention
as §1, with “dose of the administration group” for “dose”
Specific procedures: The mice were continuously administered for 6 days, and tested 1 hour after the last administration. Firstly, the spontaneous activity of the mice was measured by the open field method, that is, the mice were individually placed in a cylindrical glass jar for 4 minutes, and the number of lifting arms within the last two minutes was recorded. The mice were then individually placed in a cylindrical glass jar (20 cm high and 14 cm in diameter) with a water depth of 10 cm and a water temperature of 23° C. to 25° C. After mice entered into water, a 6-minute timing was conducted, the cumulative immobility time (the criteria for determining immobility: the mice stopped struggling in the water, or floated with only small limb movements to keep the head float on the water) within the last four minutes was recorded. Each group of mice was operated in parallel.
as §2, with “forced swimming” for “tail suspension test”

[3] = test system: C57 mice susceptible to social defeat by CD-1 aggressive mice; assay: Social defeated stress (SDS) model, Example 42; type: in vivo; details: 10 mg/kg gavage every day
Experimental: Male CD-1 aged 4-6 months mice which had passed childbearing age were raised separately, allowed to eat freely and adapt to the environment for about one week. Male C57 mice (aged 8-20 weeks differently) were used to screen for aggressive CD-1 mice. The mice screened by C57 were placed directly in the cage of CD-1 for 3 minutes, and the latency period for CD-1 to start showing offensive was recorded, and then the mice screened by C57 were moved out. For each CD-1 mouse, the same C57 was used to screen it three times a day, and different C57-selected mice were selected every day for a total of three days of screening. […] After screening for CD-1 aggressive mice for modeling, each C57 test mouse was exposed to different CD-1 aggressive mice for 10 consecutive days, 10 minutes each day. […] After 10 minutes of contact, the test mice were isolated from the invaders. Test mice and aggressive mice were placed in adjacent sections of the same squirrel cage, separated by a porous transparent plastic baffle, allowing test mice to be exposed under a threatening chronic stress stimulation for the next 24 hours. The control mice were placed in cages having the same structure, but the other side of the baffle was placed with other mice of the same line that were replaced daily. After 24 hours after the end of the last day of the experiment, we evaluated CSDS-induced social behavioral changes and selected all susceptible mice based on previous reports. The social interaction ratio (SI ratio) was calculated according to the following formula: SI ratio=time for the mouse in the interaction area when the aggressor exists/time for the mouse in the interaction area when the aggressor is absent. […] All selected test mice and control mice were then housed individually for 3 weeks. […] The mice in the vehicle group were administered by gavage with 0.5% CMC-Na every day. The SI ratio was assessed once a week.
Two-way ANOVA was used to analyze and LSD method was used for the multiple comparisons of calibration results. The data were expressed in Mean sem. […]

rats [4] = assay: Forced swimming test in rat model, compound C-11 versus fluoxetine, Example 41; type: in vivo
Experimental: (§3) The rats were placed in a cylindrical jar 24 hours before administration to accommodate the underwater environment for 15 min. On the day of the behavioral test, animals were administered twice and administered orally 4 h and 1 h before the behavioral test. The rats were individually placed in a cylindrical glass jar, timed for 6 minutes, and the number of arm lift was recorded within the last 2 minutes. The rats were then placed in a cylindrical glass jar having 30 cm high and 20 cm in diameter. […] Water temperature was 23° C.-25° C.

mice [5] = assay: Tail suspension test in mouse model, compound C-11 versus fluoxetine, Example 40; type: in vivo; details: FIG. 2
Experimental: On the day of the behavioral test, animals were dosed twice and administered orally 4 h and 1 h before the behavioral test. During the experiment, the tail of the mouse was hung on a tail suspension test stand about 15 cm away from the ground with a tape or a clip at about 1 cm away from the tail end. The mice struggled to overcome the abnormal posture, but appeared intermittent immobility after a period of activity showing disappointment state. The experimental time for each group was 6 minutes. Since most of the mice struggled actively for the first two minutes, the immobility time within the last four minutes was recorded.

rats [6] = assay: Tail suspension test in rat model, compound C-11 versus fluoxetine, Example 41; type: in vivo
Experimental: On the day of the behavioral test, animals were dosed twice and administered orally 4 h and 1 h before the behavioral test. During the experiment, the tail of the rat was hung on a tail suspension test stand about 15 cm away from the ground with a tape or a clip at about 1 cm away from the tail end. […] The experimental time for each group was 6 minutes.

ICR mice [7] = assay: Toxicity observed during antidepressant efficacy screening (FST and TST animal batch); type: in vivo; details: same animal batch as efficacy screening, gavage 10 mg/Kg
Description: as §1, with “dose of the administration group” for “dose”
as §1, with “The specific administration method was gavage administration, and the administration dose was 10 mg/Kg, and the blank control group was given an equal volume of 0.5% CMC-Na.” left out

mice [8] = assay: Forced swimming test in mouse model, compound C-11 versus fluoxetine, Example 40; type: in vivo; details: FIG. 1
Experimental: as §3, with “The mice were placed” for “The rats were placed”, “test. The mice were individually” for “test. The rats were individually”, “minutes. The mice were then” for “minutes. The rats were then”, “C.-25° C. After the mice entered into the water, a 6-minute video was taken. […] Each group of mice was operated in parallel.” for “C.-25° C.”

[9] = Acta Pharmacologica Sinica 2014; 35 (9): 1188-1198; cited from earlier work
[10] = dose 3.46 mg/kg oral, vs vehicle group, FIG. 3
[11] = rats, oral 4 h and 1 h before the test, dose not given
[12] = mice, oral 4 h and 1 h before the test, vs blank group

SMILES | effect on immobility time of mouse in tail suspension test compared with the blank group (in words) (ICR mice [1]) | effect on immobility time of mice in forced swimming test compared with the blank group (in words) (ICR mice [2]) | duration of oral administration that effectively alleviates depressive symptoms [3] | effect on immobility time of rats in forced swimming test (rats [4]; dose 1.73 mg/kg oral, vs vehicle group, FIG. 3) | effect on immobility time of rats in forced swimming test (rats [4]; [10]) | effect on wall climbing behavior / wall climbing time of rats in forced swimming test (rats [4]; [10]) | effective dose compared with fluoxetine (rats [4]; rat forced swimming test, FIG. 3) | effect on cumulative immobility time of rats in the forced swimming test (in words) (rats [4]; [11]) | effect on cumulative immobility time of the mouse in tail suspension test (in words) (mice [5]; [12]) | effective dose compared with fluoxetine (mice [5]; mouse tail suspension test) | effect on cumulative immobility time of rats in tail suspension test (rats [6]; dose 3.46 mg/kg oral, vs vehicle group, FIG. 4) | effective dose compared with fluoxetine (rats [6]; rat tail suspension test, FIG. 4) | effect on immobility time of rats in tail suspension test (in words) (rats [6]; [11]) | toxicity observed (ICR mice [7]) | effect on cumulative immobility time of mice in the forced swimming test (in words) (mice [8]; [12]) | effective dose compared with fluoxetine (mice [8]; mouse forced swimming test) | toxicity [9]
C[C@H]1CC[C@@]2(OC1)O[C@H]1C[C@H]3[C@@H]4CC[C@@H]5C[C@H](NC(=O)NC6CCCCC6)CC[C@]5(C)[C@H]4CC[C@]3(C)[C@H]1[C@@H]2C [compound C-11] | extremely significant antidepressant activity | extremely significant antidepressant activity | 1-2 weeks | significantly reduce the immobility time | significantly reduce the immobility time | significantly increases the wall climbing time | significantly lower than that of the positive drug fluoxetine | significantly reduced the cumulative immobility time | significantly reduced the cumulative immobility time | only half of that of fluoxetine | significantly reduce the cumulative immobility time | significantly lower than that of the positive drug fluoxetine | significantly reduced the immobility time | No significant toxicity was observed | significantly reduced the cumulative immobility time | only half of that of fluoxetine | 
C[C@H]1CC[C@@]2(OC1)O[C@H]1C[C@H]3C4CC[C@@H]5C[C@@H](O[C@@H]6OC(CO)[C@H](O)[C@H](O)C6O[C@@H]6OC(CO)[C@@H](O)[C@H](O)C6O)CC[C@]5(C)C4CC[C@]3(C)C1[C@@H]2C (stereo partly shown) [timosaponin A3, reference compound] | significant antidepressant activity | could not significantly reduce the immobility time |  |  |  |  |  |  |  |  |  |  |  |  |  |  | significant toxicity
